In ChEMBL document CHEMBL3991601, “The target landscape of clinical kinase drugs” (Science, 2017):
The source made the active and inactive calls. Rule as the data show it, for most assays here: actives have a measured Kd and inactives only a lower limit.

Key:
[1] = target: cAMP-dependent protein kinase catalytic subunit alpha (Homo sapiens, UniProt P17612)
[2] = target: T1, DNA replication licensing factor MCM4 (Homo sapiens, UniProt P33991)
T1 sequence (P33991 whole entry): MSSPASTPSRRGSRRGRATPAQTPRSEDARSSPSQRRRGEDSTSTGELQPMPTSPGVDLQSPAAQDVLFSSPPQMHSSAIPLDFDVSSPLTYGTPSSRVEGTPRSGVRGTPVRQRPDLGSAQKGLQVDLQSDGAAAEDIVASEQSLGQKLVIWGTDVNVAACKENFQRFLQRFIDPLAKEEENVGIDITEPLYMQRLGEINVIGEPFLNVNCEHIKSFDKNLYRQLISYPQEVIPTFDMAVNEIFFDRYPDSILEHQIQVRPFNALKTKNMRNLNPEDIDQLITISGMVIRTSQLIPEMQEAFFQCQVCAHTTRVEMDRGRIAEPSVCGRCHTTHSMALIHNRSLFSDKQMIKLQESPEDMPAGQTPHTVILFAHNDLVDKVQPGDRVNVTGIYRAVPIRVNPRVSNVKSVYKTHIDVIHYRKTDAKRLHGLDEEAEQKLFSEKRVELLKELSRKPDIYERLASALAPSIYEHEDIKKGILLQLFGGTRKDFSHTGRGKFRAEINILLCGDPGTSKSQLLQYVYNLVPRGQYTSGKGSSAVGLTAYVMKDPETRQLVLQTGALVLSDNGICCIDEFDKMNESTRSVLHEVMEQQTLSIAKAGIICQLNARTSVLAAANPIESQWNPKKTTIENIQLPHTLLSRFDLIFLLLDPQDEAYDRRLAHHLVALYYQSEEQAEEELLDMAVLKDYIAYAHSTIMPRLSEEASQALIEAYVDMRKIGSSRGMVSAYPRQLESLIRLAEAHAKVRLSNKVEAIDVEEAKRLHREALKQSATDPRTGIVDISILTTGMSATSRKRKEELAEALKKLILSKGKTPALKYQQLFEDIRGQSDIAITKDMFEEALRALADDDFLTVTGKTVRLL

[3] = target: Macrophage-stimulating protein receptor (Homo sapiens, UniProt Q04912)
[4] = target: Ribosomal protein S6 kinase alpha-4 (Homo sapiens, UniProt O75676)
[5] = target: Cyclin-dependent kinase 4 (Homo sapiens, UniProt P11802)
[6] = target: T2, Serine/threonine-protein kinase LATS1 (Homo sapiens, UniProt O95835)
T2 sequence (O95835 whole entry): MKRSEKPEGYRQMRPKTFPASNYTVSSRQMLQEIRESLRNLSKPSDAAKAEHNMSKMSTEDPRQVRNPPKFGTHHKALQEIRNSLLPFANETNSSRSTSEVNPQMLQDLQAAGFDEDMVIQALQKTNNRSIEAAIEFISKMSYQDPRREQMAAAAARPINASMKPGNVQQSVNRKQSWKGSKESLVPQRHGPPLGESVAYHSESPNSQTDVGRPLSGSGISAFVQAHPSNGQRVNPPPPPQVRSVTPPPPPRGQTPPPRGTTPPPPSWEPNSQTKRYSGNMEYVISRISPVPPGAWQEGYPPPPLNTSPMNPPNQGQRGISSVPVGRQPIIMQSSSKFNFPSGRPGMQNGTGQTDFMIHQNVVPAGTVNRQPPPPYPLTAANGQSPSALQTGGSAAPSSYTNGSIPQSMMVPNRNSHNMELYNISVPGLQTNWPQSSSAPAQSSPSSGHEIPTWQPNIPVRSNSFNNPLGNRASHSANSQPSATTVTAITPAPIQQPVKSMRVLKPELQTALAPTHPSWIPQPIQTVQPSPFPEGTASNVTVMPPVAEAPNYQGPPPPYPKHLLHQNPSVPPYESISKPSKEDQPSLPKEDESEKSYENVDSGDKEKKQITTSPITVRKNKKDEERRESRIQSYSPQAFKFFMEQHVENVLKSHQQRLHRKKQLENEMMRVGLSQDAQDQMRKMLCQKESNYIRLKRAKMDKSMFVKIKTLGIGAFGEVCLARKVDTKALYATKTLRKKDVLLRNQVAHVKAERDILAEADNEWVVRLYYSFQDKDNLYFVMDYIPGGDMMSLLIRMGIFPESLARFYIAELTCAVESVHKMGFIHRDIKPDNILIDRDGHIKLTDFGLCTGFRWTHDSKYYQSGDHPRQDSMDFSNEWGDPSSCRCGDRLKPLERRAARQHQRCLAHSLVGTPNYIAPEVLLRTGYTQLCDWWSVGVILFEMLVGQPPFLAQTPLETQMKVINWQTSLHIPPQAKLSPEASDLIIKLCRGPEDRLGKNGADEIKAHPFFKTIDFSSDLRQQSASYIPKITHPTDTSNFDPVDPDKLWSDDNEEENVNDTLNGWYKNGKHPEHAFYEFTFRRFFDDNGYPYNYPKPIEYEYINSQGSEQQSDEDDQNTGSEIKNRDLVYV

[7] = target: Ribosomal protein S6 kinase alpha-1 (Homo sapiens, UniProt Q15418)
[8] = target: Mitogen-activated protein kinase kinase kinase 1 (Homo sapiens, UniProt Q13233)
[9] = target: T3, Interleukin-1 receptor-associated kinase 3 (Homo sapiens, UniProt Q9Y616)
T3 sequence (Q9Y616 whole entry): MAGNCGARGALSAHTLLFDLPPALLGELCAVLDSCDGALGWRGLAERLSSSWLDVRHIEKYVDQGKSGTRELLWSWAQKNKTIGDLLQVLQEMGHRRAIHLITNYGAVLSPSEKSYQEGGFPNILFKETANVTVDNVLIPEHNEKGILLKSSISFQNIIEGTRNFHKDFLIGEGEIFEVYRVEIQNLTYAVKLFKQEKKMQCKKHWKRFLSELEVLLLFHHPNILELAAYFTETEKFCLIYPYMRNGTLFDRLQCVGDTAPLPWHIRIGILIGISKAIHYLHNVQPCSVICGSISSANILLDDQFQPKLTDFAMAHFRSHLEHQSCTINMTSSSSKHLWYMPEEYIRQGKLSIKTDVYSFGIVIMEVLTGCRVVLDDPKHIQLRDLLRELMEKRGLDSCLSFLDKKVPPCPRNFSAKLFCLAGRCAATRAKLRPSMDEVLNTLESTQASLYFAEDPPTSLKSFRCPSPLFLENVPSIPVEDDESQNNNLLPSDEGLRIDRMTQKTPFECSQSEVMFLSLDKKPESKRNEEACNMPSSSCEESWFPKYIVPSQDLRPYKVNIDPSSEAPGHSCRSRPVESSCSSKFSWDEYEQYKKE
Also: in the data inactive means no Kd found up to 30 µM.

Chain of Ribosomal protein S6 kinase alpha-4 (O75676 whole entry): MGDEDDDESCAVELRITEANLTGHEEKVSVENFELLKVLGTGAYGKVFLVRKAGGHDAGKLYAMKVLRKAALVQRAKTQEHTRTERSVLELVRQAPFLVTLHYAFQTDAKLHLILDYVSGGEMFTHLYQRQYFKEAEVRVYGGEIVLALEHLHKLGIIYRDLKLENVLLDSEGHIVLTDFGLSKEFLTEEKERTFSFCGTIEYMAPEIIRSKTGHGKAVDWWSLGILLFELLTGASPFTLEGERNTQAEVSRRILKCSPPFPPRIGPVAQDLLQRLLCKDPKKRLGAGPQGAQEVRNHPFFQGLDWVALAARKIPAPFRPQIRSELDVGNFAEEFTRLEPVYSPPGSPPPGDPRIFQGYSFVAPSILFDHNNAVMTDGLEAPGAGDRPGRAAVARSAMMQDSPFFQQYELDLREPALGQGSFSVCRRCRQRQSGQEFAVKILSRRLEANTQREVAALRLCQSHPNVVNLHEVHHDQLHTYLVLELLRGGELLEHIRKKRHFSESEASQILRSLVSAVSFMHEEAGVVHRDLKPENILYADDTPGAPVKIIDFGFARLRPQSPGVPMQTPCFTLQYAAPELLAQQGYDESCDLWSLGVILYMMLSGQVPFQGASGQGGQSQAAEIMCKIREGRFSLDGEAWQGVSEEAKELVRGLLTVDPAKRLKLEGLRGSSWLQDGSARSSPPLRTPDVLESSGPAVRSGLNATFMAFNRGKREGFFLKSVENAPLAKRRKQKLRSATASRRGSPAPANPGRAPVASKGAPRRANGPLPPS
Chain of Mitogen-activated protein kinase kinase kinase 1 (Q13233 whole entry): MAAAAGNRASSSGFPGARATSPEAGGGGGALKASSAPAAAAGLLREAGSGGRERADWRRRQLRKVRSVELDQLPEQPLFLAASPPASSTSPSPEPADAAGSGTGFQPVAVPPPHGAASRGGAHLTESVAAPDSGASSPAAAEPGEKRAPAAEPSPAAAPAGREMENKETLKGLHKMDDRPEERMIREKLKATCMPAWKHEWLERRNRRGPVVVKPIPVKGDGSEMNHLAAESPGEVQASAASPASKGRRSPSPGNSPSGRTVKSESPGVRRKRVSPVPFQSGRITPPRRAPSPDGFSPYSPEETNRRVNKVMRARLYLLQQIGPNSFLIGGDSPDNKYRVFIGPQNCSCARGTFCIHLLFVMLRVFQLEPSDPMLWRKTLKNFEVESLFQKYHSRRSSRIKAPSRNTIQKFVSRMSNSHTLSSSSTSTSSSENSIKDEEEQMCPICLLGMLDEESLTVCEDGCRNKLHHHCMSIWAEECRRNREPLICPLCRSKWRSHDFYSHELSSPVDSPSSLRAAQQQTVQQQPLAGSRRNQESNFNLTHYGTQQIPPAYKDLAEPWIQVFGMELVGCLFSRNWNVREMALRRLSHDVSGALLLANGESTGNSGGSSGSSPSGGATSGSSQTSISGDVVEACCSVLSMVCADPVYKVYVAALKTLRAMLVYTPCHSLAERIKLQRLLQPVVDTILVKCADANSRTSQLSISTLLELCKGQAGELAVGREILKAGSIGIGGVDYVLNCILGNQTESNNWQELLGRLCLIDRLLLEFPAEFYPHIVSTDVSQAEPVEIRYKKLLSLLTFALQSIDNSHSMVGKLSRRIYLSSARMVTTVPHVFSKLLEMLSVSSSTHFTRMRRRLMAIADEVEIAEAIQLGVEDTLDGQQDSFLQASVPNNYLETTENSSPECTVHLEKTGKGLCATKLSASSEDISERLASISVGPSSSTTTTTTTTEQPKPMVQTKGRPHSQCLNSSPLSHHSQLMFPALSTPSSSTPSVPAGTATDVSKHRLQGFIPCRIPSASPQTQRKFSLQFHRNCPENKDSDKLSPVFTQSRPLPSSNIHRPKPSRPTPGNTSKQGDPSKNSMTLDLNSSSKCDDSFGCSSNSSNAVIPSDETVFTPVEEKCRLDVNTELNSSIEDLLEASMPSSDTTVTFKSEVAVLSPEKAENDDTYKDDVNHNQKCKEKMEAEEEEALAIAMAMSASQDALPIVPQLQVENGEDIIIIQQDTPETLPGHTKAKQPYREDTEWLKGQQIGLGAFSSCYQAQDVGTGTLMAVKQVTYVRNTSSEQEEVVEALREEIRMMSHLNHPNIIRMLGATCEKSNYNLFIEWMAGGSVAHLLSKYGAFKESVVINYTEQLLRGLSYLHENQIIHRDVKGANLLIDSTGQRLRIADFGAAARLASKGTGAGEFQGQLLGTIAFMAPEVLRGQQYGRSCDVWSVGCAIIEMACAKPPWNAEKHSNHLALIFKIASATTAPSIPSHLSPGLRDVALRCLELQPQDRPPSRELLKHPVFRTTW
Chain of Macrophage-stimulating protein receptor (Q04912 25-304 limits assumed): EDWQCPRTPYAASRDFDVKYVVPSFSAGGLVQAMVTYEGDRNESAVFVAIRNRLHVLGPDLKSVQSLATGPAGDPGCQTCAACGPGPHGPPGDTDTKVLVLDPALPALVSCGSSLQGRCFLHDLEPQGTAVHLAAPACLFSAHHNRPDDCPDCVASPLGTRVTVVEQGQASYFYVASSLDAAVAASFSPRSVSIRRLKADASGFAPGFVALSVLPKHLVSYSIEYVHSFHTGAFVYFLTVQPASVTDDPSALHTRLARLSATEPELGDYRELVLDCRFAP
Chain of Macrophage-stimulating protein receptor (Q04912 310-1400 limits assumed): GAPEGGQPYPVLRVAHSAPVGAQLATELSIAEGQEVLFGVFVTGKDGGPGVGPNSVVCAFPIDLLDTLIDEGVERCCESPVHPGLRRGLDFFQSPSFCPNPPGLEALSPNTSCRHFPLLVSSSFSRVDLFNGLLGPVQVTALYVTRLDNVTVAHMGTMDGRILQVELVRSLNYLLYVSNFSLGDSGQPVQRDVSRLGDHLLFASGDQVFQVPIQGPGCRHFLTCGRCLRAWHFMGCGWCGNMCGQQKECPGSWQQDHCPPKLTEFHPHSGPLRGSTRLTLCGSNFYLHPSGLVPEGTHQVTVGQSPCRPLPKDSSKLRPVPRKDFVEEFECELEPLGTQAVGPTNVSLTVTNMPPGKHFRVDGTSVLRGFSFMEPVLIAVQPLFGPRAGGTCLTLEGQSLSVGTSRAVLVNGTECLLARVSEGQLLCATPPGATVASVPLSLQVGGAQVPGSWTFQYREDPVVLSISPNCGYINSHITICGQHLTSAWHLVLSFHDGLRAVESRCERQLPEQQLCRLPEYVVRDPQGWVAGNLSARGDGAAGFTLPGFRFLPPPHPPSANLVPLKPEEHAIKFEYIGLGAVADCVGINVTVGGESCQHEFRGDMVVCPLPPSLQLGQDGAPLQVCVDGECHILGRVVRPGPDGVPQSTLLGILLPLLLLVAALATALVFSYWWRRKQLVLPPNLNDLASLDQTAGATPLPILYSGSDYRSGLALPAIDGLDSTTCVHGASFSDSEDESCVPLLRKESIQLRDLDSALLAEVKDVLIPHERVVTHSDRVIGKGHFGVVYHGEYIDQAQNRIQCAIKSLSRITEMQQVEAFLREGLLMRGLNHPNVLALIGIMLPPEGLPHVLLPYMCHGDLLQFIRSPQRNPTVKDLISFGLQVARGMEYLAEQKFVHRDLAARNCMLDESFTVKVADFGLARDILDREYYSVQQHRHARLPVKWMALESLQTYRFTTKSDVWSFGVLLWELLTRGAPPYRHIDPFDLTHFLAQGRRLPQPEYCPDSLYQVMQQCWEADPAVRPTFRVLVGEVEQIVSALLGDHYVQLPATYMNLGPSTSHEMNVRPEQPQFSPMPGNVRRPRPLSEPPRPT
Chain of Cyclin-dependent kinase 4 (P11802 whole entry): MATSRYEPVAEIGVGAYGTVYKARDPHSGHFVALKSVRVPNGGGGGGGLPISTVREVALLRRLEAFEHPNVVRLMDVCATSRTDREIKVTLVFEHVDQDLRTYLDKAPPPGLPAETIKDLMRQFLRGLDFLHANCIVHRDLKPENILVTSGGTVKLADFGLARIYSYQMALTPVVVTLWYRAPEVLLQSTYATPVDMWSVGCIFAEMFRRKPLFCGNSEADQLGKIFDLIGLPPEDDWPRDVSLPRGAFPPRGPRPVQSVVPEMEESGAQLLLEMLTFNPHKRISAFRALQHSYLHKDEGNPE
Chain of Ribosomal protein S6 kinase alpha-1 (Q15418 whole entry): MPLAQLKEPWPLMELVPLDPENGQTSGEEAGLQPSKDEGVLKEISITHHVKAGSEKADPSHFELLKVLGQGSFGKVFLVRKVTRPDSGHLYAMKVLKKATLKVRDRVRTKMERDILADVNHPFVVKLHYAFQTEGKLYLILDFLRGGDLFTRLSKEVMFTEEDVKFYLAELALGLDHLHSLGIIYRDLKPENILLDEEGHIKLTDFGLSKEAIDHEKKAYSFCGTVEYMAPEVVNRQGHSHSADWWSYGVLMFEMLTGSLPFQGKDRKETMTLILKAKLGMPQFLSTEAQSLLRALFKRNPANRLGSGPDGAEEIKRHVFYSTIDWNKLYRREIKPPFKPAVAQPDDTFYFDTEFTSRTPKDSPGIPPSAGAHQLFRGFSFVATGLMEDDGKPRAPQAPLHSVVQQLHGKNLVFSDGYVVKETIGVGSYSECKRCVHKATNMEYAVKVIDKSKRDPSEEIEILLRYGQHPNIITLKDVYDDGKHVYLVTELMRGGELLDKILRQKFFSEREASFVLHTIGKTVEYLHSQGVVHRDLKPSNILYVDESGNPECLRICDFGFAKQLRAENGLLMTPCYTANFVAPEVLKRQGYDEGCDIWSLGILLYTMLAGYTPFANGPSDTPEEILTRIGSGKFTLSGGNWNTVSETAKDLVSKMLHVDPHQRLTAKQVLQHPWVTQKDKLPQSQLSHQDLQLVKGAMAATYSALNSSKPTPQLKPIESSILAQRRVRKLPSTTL

| SMILES | Kd [1] | Kd [2] | Kd [3] | Kd [4] | Kd [5] | Kd [6] | Kd [7] | Kd [8] | Kd [9] |
| --- | --- | --- | --- | --- | --- | --- | --- | --- | --- |
| C[C@@H]1CN(Cc2ccc(F)cc2)[C@@H](C)CN1C(=O)c1cc2c(C(=O)C(=O)N(C)C)cn(C)c2cc1Cl [TALMAPIMOD] | > 30 µM (inactive) | > 30 µM (inactive) | > 30 µM (inactive) | > 30 µM (inactive) | > 30 µM (inactive) | > 30 µM (inactive) | > 30 µM (inactive) | > 30 µM (inactive) | > 30 µM (inactive) |
| O=C1NC(=O)/C(=C/c2ccc3nccc(-c4ccncc4)c3c2)S1 [GSK-1059615] | > 30 µM (inactive) | > 30 µM (inactive) | > 30 µM (inactive) | 0.499 µM (active) | > 30 µM (inactive) | > 30 µM (inactive) | > 30 µM (inactive) | > 30 µM (inactive) | 8.67 µM (active) |
| CO[C@H]1C[C@@H]2CC[C@@H](C)[C@@](O)(O2)C(=O)C(=O)N2CCCC[C@H]2C(=O)O[C@H]([C@H](C)C[C@@H]2CC[C@@H](OCCO)[C@H](OC)C2)CC(=O)[C@H](C)/C=C(\C)[C@@H](O)[C@@H](OC)C(=O)[C@H](C)C[C@H](C)/C=C/C=C/C=C/1C [EVEROLIMUS] | > 30 µM (inactive) | > 30 µM (inactive) | > 30 µM (inactive) | > 30 µM (inactive) | > 30 µM (inactive) | > 30 µM (inactive) | > 30 µM (inactive) | > 30 µM (inactive) | > 30 µM (inactive) |
| CC(C)Nc1cc(-c2c[nH]c(C(=O)N[C@H](CO)c3cccc(Cl)c3)c2)c(Cl)cn1 [ULIXERTINIB] | > 30 µM (inactive) | > 30 µM (inactive) | > 30 µM (inactive) | > 30 µM (inactive) | > 30 µM (inactive) | > 30 µM (inactive) | > 30 µM (inactive) | > 30 µM (inactive) | > 30 µM (inactive) |
| Cc1ccc(-n2nc(C(C)(C)C)cc2NC(=O)NCc2cc(F)ccc2Oc2ccc3c(cnn3CCO)c2)cc1 [PEXMETINIB] | > 30 µM (inactive) | > 30 µM (inactive) | > 30 µM (inactive) | > 30 µM (inactive) | > 30 µM (inactive) | > 30 µM (inactive) | > 30 µM (inactive) | > 30 µM (inactive) | > 30 µM (inactive) |
| CC(=O)Nc1cccc(-n2c(=O)n(C3CC3)c(=O)c3c(Nc4ccc(I)cc4F)n(C)c(=O)c(C)c32)c1 [TRAMETINIB] | > 30 µM (inactive) | > 30 µM (inactive) | > 30 µM (inactive) | > 30 µM (inactive) | > 30 µM (inactive) | > 30 µM (inactive) | > 30 µM (inactive) | > 30 µM (inactive) | > 30 µM (inactive) |
| COC(=O)N[C@@H](C)CNc1nccc(-c2cn(C(C)C)nc2-c2cc(Cl)cc(NS(C)(=O)=O)c2F)n1 [ENCORAFENIB] | > 30 µM (inactive) | > 30 µM (inactive) | > 30 µM (inactive) | > 30 µM (inactive) | 0.112 µM (active) | > 30 µM (inactive) | > 30 µM (inactive) | > 30 µM (inactive) | > 30 µM (inactive) |
| O=C(Nc1ccc(-c2ccnc(Nc3ccc(N4CCOCC4)cc3)n2)cc1)C1CCCN1 (stereo unspecified) [XL-019] | > 30 µM (inactive) | > 30 µM (inactive) | > 30 µM (inactive) | > 30 µM (inactive) | > 30 µM (inactive) | 3.79 µM (active) | > 30 µM (inactive) | > 30 µM (inactive) | > 30 µM (inactive) |
| CCn1c(=O)c(-c2cc[nH]n2)cc2c(C)nc(N)nc21 [VOXTALISIB] | > 30 µM (inactive) | > 30 µM (inactive) | > 30 µM (inactive) | > 30 µM (inactive) | > 30 µM (inactive) | > 30 µM (inactive) | > 30 µM (inactive) | > 30 µM (inactive) | > 30 µM (inactive) |
| Cc1ccc(NC(=O)c2ccc(CN3CC[C@H](N(C)C)C3)c(C(F)(F)F)c2)cc1Nc1nccc(-c2cncnc2)n1 [BAFETINIB] | > 30 µM (inactive) | > 30 µM (inactive) | > 30 µM (inactive) | > 30 µM (inactive) | > 30 µM (inactive) | > 30 µM (inactive) | > 30 µM (inactive) | > 30 µM (inactive) | > 30 µM (inactive) |
| COc1ccc(-c2ccc3c(N4CCOC[C@@H]4C)nc(N4CCOC[C@@H]4C)nc3n2)cc1CO [AZD-8055] | > 30 µM (inactive) | > 30 µM (inactive) | > 30 µM (inactive) | > 30 µM (inactive) | > 30 µM (inactive) | > 30 µM (inactive) | > 30 µM (inactive) | > 30 µM (inactive) | > 30 µM (inactive) |
| N[C@@H]1CCCN(c2c(/C=C3\SC(=O)NC3=O)cccc2-c2ccccc2)C1 | > 30 µM (inactive) | > 30 µM (inactive) | > 30 µM (inactive) | > 30 µM (inactive) | > 30 µM (inactive) | > 30 µM (inactive) | > 30 µM (inactive) | > 30 µM (inactive) | > 30 µM (inactive) |
| CNC(=O)CN1CCC(Oc2cc3c(Nc4cccc(Cl)c4F)ncnc3cc2OC)CC1 [SAPITINIB] | > 30 µM (inactive) | > 30 µM (inactive) | > 30 µM (inactive) | > 30 µM (inactive) | > 30 µM (inactive) | > 30 µM (inactive) | > 30 µM (inactive) | > 30 µM (inactive) | > 30 µM (inactive) |
| COc1cc(CCc2cc(NC(=O)c3ccc(N4C[C@@H](C)N[C@@H](C)C4)cc3)n[nH]2)cc(OC)c1 [AZD-4547] | > 30 µM (inactive) | > 30 µM (inactive) | > 30 µM (inactive) | > 30 µM (inactive) | > 30 µM (inactive) | > 30 µM (inactive) | > 30 µM (inactive) | > 30 µM (inactive) | > 30 µM (inactive) |
